Assay results: patent US12486301B2, “8-fluoro-4-alkylumbelliferyl α-D-glucopyranoside, biological sterilization indicator including the same and its use in a method of determining efficacy of a sterilization process” (Solventum Intellectual Properties Company, priority 2019, dated 2025)

What was measured:
[1] = test system: Geobacillus stearothermophilus spores (ATCC 7953); assay: Fluorescence from enzyme substrates incubated with Geobacillus stearothermophilus spores in culture media; type: cell-based; conditions: 5×10^3 spores, substrate 0.1 mg/mL, 60° C.; for MEASURED FLUORESCENCE, RFU 10 sec: 360 nm excitation/450 nm emission
Protocol: Culture media was prepared by dissolving 5 g/L peptone C (BD 211921) and 12 g/L phytone peptone (BD BBL 211906) in deionized water. The pH was adjusted with 1 N NaOH or 0.1 N HCl, the media brought to volume, and then filter sterilized with a 0.22 micron PES filter. Stock solutions ([…]) of 8′-fluoro-4′-methylumbelliferyl-α-D-glucopyranoside, 6′-fluoro-4′-methylumbelliferyl-α-D-glucopyranoside, and 4-methylumbelliferyl-α-D-glucopyranoside were prepared in DMSO. The aforementioned substrates were added to culture media at a final concentration of 0.1 mg/ml and media were then 0.22 μm filter sterilized.
Culture media (pH 6) containing 8′-fluoro-4′-methylumbelliferyl-[…]-D-glucopyranoside (0.1 mg/mL) was added to two wells (100 microliters per well) of a black 96-well microtiter plate with (NUNC #165301, Thermo Fisher Scientific). A 5 microliter aqueous suspension containing 5×10^3 Geobacillus stearothermophilus spores (ATCC 7953) was added to each well of the microtiter plate. Next, the contents of each well were mixed using a multiple aspiration/delivery sequence with the pipet. […] The top of the plate was covered with an optically clear sealing film (product #4311971, Applied Biosystems Corporation, Foster City, California). The plate was warmed at 60° C. and shaken in a linear direction. Fluorescence readings (360 nm excitation/450 nm emission at 50% gain) were taken from the top of the plate. A reading was taken at an initial time point of 10 seconds and then at +1 minute intervals thereafter. A Synergy Neo2 fluorescence plate reader (BioTek Company, Winooski, Vermont) was used. In Table 1, the mean fluorescence values detected (RFU) at times of 10 seconds, +5 minutes, +10 minutes, and +30 minutes are reported. The mean fluorescence values detected for the control wells were 614 RFU at 10 seconds; 547 RFU at +5 minutes; 504 RFU at +10 minutes, and 438 RFU at +30 minutes.
Culture media (pH 7) containing 8′-fluoro-4′-methylumbelliferyl-[…]-D-glucopyranoside (0.1 mg/mL) was added to two wells (100 microliters per well) of a black 96-well microtiter plate with (NUNC #165301, Thermo Fisher Scientific). A 5 microliter aqueous suspension containing 5×10^3 Geobacillus stearothermophilus spores (ATCC 7953) was added to each well of the microtiter plate. Next, the contents of each well were mixed using a multiple aspiration/delivery sequence with the pipet. […] The top of the plate was covered with an optically clear sealing film (product #4311971, Applied Biosystems Corporation). The plate was warmed at 60° C. and shaken in a linear direction. Fluorescence readings (360 nm excitation/450 nm emission at 50% gain) were taken from the top of the plate. A reading was taken at an initial time point of 10 seconds and then at +1 minute intervals thereafter. A Synergy Neo2 fluorescence plate reader (BioTek Company) was used. In Table 2, the mean fluorescence values detected (RFU) at times of 10 seconds, +5 minutes, +10 minutes, and +30 minutes are reported. The mean fluorescence values detected for the control wells were 601 RFU at 10 seconds; 533 RFU at +5 minutes; 495 RFU at +10 minutes, and 430 RFU at +30 minutes.
Culture media (pH 8) containing 8′-fluoro-4′-methylumbelliferyl-[…]-D-glucopyranoside (0.1 mg/mL) was added to two wells (100 microliters per well) of a black 96-well microtiter plate with (NUNC #165301, Thermo Fisher Scientific). A 5 microliter aqueous suspension containing 5×10^3 Geobacillus stearothermophilus spores (ATCC 7953) was added to each well of the microtiter plate. Next, the contents of each well were mixed using a multiple aspiration/delivery sequence with the pipet. […] The top of the plate was covered with an optically clear sealing film (product #4311971, Applied Biosystems Corporation). The plate was warmed at 60° C. and shaken in a linear direction. Fluorescence readings (360 nm excitation/450 nm emission at 50% gain) were taken from the top of the plate. […]

[2] = test system: Geobacillus stearothermophilus spores (ATCC 7953); assay: as above; type: cell-based; conditions: substrate 0.1 mg/mL, 60° C.
[3] = pH 6 culture media, 5×10^3 spores
[4] = pH 6 culture media, 5×10^6 spores
[5] = pH 7 culture media, 5×10^3 spores
[6] = pH 7 culture media, 5×10^6 spores
[7] = pH 8 culture media, 5×10^3 spores
[8] = pH 8 culture media, 5×10^6 spores
[9] = pH 9 culture media, 5×10^3 spores
[10] = pH 9 culture media, 5×10^6 spores

| Compound | MEASURED FLUORESCENCE, RFU 10 sec ([1]; pH 6 culture media) [RFU] | MEASURED FLUORESCENCE, RFU +10 min ([1]; pH 6 culture media) [RFU] | MEASURED FLUORESCENCE, RFU +5 min ([1]; pH 7 culture media) [RFU] | MEASURED FLUORESCENCE, RFU +10 min ([1]; pH 7 culture media) [RFU] | MEASURED FLUORESCENCE, RFU +30 min ([1]; pH 7 culture media) [RFU] | MEASURED FLUORESCENCE, RFU +30 min ([1]; pH 8 culture media) [RFU] | MEASURED FLUORESCENCE, RFU +5 min [2, 3] [RFU] | MEASURED FLUORESCENCE, RFU +30 min [2, 3] [RFU] | MEASURED FLUORESCENCE, RFU 10 sec [2, 4] [RFU] | MEASURED FLUORESCENCE, RFU +5 min [2, 4] [RFU] | MEASURED FLUORESCENCE, RFU +10 min [2, 4] [RFU] | MEASURED FLUORESCENCE, RFU +30 min [2, 4] [RFU] | MEASURED FLUORESCENCE, RFU 10 sec [2, 5] [RFU] | MEASURED FLUORESCENCE, RFU 10 sec [2, 6] [RFU] | MEASURED FLUORESCENCE, RFU +5 min [2, 6] [RFU] | MEASURED FLUORESCENCE, RFU +10 min [2, 6] [RFU] | MEASURED FLUORESCENCE, RFU +30 min [2, 6] [RFU] | MEASURED FLUORESCENCE, RFU 10 sec [2, 7] [RFU] | MEASURED FLUORESCENCE, RFU +5 min [2, 7] [RFU] | MEASURED FLUORESCENCE, RFU +10 min [2, 7] [RFU] | also measured |
| --- | --- | --- | --- | --- | --- | --- | --- | --- | --- | --- | --- | --- | --- | --- | --- | --- | --- | --- | --- | --- | --- |
| Cc1cc(=O)oc2cc(O[C@H]3O[C@H](CO)[C@@H](O)[C@H](O)[C@H]3O)ccc12 [MUG, 4′-methylumbelliferyl-α-D-glucopyranoside] | 646 | 588 | 634 | 655 | 1219 | 1725 | 585 | 1210 | 4600 | 9209 | 10250 | 9996 | 676 | 10780 | 22443 | 26791 | 24911 | 704 | 661 | 700 | MEASURED FLUORESCENCE, RFU 10 sec [2, 8]: 12320 RFU; MEASURED FLUORESCENCE, RFU +5 min [2, 8]: 32993 RFU; MEASURED FLUORESCENCE, RFU +10 min [2, 8]: 51516 RFU; MEASURED FLUORESCENCE, RFU +30 min [2, 8]: 53517 RFU; MEASURED FLUORESCENCE, RFU 10 sec [2, 9]: 698 RFU; MEASURED FLUORESCENCE, RFU +5 min [2, 9]: 634 RFU; MEASURED FLUORESCENCE, RFU +10 min [2, 9]: 621 RFU; MEASURED FLUORESCENCE, RFU +30 min [2, 9]: 1153 RFU; MEASURED FLUORESCENCE, RFU 10 sec [2, 10]: 5777 RFU; MEASURED FLUORESCENCE, RFU +5 min [2, 10]: 19462 RFU; MEASURED FLUORESCENCE, RFU +10 min [2, 10]: 43381 RFU; MEASURED FLUORESCENCE, RFU +30 min [2, 10]: 64660 RFU |
| Cc1cc(=O)oc2c(F)c(O[C@H]3O[C@H](CO)[C@@H](O)[C@H](O)[C@H]3O)ccc12 [Example 1, 8′-Fluoro-4′-methylumbelliferyl […]-D-glucopyranoside] | 806 | 1909 | 1474 | 2681 | 10190 | 7477 | 1212 | 5600 | 30514 | 34348 | 32547 | 30518 | 886 | 49649 | 54906 | 52619 | 49458 | 729 | 971 | 1655 | MEASURED FLUORESCENCE, RFU 10 sec [2, 8]: 39958 RFU; MEASURED FLUORESCENCE, RFU +5 min [2, 8]: 58746 RFU; MEASURED FLUORESCENCE, RFU +10 min [2, 8]: 58909 RFU; MEASURED FLUORESCENCE, RFU +30 min [2, 8]: 55069 RFU; MEASURED FLUORESCENCE, RFU 10 sec [2, 9]: 655 RFU; MEASURED FLUORESCENCE, RFU +5 min [2, 9]: 663 RFU; MEASURED FLUORESCENCE, RFU +10 min [2, 9]: 831 RFU; MEASURED FLUORESCENCE, RFU +30 min [2, 9]: 2910 RFU; MEASURED FLUORESCENCE, RFU 10 sec [2, 10]: 15513 RFU; MEASURED FLUORESCENCE, RFU +5 min [2, 10]: 39862 RFU; MEASURED FLUORESCENCE, RFU +10 min [2, 10]: 55056 RFU; MEASURED FLUORESCENCE, RFU +30 min [2, 10]: 52276 RFU |
| Cc1cc(=O)oc2cc(O[C@H]3O[C@H](CO)[C@@H](O)[C@H](O)[C@H]3O)c(F)cc12 [Example 6F-MUG, 6′-Fluoro-4′-methylumbelliferyl […]-D-glucopyranoside] | 886 | 1903 | 1130 | 1855 | 8708 | 5638 | 1200 | 6663 | 53357 | 60972 | 58039 | 55966 | 879 | 67489 | 80834 | 78888 | 75469 | 825 | 878 | 1204 | MEASURED FLUORESCENCE, RFU 10 sec [2, 8]: 49967 RFU; MEASURED FLUORESCENCE, RFU +5 min [2, 8]: 81623 RFU; MEASURED FLUORESCENCE, RFU +10 min [2, 8]: 85491 RFU; MEASURED FLUORESCENCE, RFU +30 min [2, 8]: 78890 RFU; MEASURED FLUORESCENCE, RFU 10 sec [2, 9]: 870 RFU; MEASURED FLUORESCENCE, RFU +5 min [2, 9]: 833 RFU; MEASURED FLUORESCENCE, RFU +10 min [2, 9]: 892 RFU; MEASURED FLUORESCENCE, RFU +30 min [2, 9]: 2376 RFU; MEASURED FLUORESCENCE, RFU 10 sec [2, 10]: 22519 RFU; MEASURED FLUORESCENCE, RFU +5 min [2, 10]: 56806 RFU; MEASURED FLUORESCENCE, RFU +10 min [2, 10]: 78179 RFU; MEASURED FLUORESCENCE, RFU +30 min [2, 10]: 76196 RFU |
